The target of experiment [1] is T1, hCB1R (Homo sapiens, UniProt P21554).
T1 construct: expressed in transfected cells; membranes
In words: biochemical. Type of experiment: binding.

The target of experiment [2] is T1, hCB1R. Briefly: cell-based. Type of experiment: cell-based. The conditions noted are these: for Emax: CHO, read-out: hCB1R Emax, inhibition of FSK-stimulated cAMP accumulation; for EC50: HitHunter CHO hCB1R cells, 90 min, 95% CI in brackets, read-out: hCB1R EC50, inhibition of FSK-stimulated cAMP accumulation. (In general: Changes in cAMP serve as a functional read-out for many G protein-coupled receptors.)

Experiment [3] deals with T1, hCB1R. Briefly: cell-based. The conditions noted are these: for Emax: CHO, read-out: hCB1R Emax, recruitment of βarrestin2.
Experiment [4] deals with T2, hCB2R (Homo sapiens, UniProt P34972). Briefly: biochemical.
T2 sequence (P34972 whole entry): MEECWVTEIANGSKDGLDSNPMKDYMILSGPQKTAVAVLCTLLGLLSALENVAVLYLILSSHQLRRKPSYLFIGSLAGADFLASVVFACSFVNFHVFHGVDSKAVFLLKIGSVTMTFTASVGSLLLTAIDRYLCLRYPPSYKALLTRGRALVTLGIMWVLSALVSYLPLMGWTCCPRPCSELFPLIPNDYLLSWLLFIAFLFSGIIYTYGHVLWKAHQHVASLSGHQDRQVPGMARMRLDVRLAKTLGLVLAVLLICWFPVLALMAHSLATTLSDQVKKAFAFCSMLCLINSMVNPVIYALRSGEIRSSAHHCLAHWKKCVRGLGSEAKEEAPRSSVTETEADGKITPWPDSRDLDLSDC
Experiment [5] relates to C57BL/6 mice. Briefly: Tetrad of assays, overall. The conditions noted are these: doses tested 0.1–10 mg/kg i.p.
Experiment [6] deals with T2, hCB2R. In words: hCB2R-dependent inhibition of FSK-stimulated cAMP accumulation (HitHunter CHO cells). The conditions noted are these: for Emax: CHO; for EC50: HitHunter CHO hCB2R cells, 90 min, 95% CI in brackets, read-out: hCB2R EC50, inhibition of FSK-stimulated cAMP accumulation. Type of experiment: cell-based. The arrangement: expressed in transfected cells; membranes.

The target of experiment [7] is T2, hCB2R. Briefly: hCB2R-dependent recruitment of βarrestin2 (PathHunter CHO cells). The class given is cell-based. The arrangement: expressed in transfected cells; membranes. The conditions noted are these: for Emax: CHO.
In experiment [8] the target is T2, hCB2R. Briefly: Ligand bias between cAMP inhibition and βarrestin2 recruitment at hCB2R (operational model). The class given is cell-based. Also noted: expressed in transfected cells; membranes. The settings on record: ∆∆LogR > 0 bias for inhibition of cAMP, < 0 bias for βarrestin2; CP55,940 reference agonist. The protocol: (§1) Figure 8 Analysis of ligand bias for phytocannabinoids at hCB1R (a) and hCB2R (b).
(§2) Concentration–response curves (CRC) were fit using non-linear regression with variable slope (4 parameters) and used to calculate EC50, Emin, and Emax (GraphPad, Prism, v. 8.0). […] In vivo data are presented as % MPE for catalepsy (MPE = 60 s) and anti-nociception (MPE = 20 s), °C for body temperature, and distance travelled (m) and % time in the centre quadrant in 5 min for OFT. Post-hoc analyses were performed using Tukey’s (one-way ANOVA) test. Homogeneity of variance was confirmed using Bartlett’s test. All data were evaluated for possible outliers using Grubb’s test in GraphPad.
(Recruitment of arrestin is a read-out of receptor activation apart from second messengers.)

Experiment [9] has as its target T2, hCB2R. In words: [^3H]CP55,940 displacement from hCB2R CHO cell membranes. The settings on record: for hCB2R Emin: bottom of the concentration–response curve of [^3H]CP55,940 displacement, %CP55,940 response, mean ± SEM; for extent of [^3H]CP55,940 displacement from hCB2R, in words: concentration range 0.1 nM–10 µM.
For experiment [10], the target named is T1, hCB1R. Briefly: Ligand bias between cAMP inhibition and βarrestin2 recruitment at hCB1R (operational model). Type of experiment: cell-based. The settings on record: ∆∆LogR > 0 bias for inhibition of cAMP, < 0 bias for βarrestin2; CP55,940 reference agonist. The protocol:
as §1, §2

In experiment [11] the test system is C57BL/6 mice. Briefly: Nociception in the tail flick assay (tetrad). Type of experiment: in vivo. The settings on record: 3 mg/kg i.p.; 15 min post-injection. The protocol:
(§3) Asterisk colour matches the treatment group assessed.
as §2
Background: Hot-plate and tail-flick tests time the reaction to a heat stimulus.

Experiment [12] relates to C57BL/6 mice. In words: Time in the centre quadrant of the OFT (anxiety-like behaviour). The class given is in vivo. The conditions noted are these: 10 mg/kg i.p.; 1 h post-injection. The protocol: as §3, §2
For experiment [13], the target named is CB1R. The settings on record: read-out: affinity for CB1R (previous reports); cited from earlier work.
In experiment [14] the target is CB2R. The settings on record: read-out: affinity for CB2R (previous reports); cited from earlier work.
The mark [15] stands for this setting: 0.1 nM–10 µM, relative to CP55,940.

Values joined by “and” are separate entries in the source; they are usually repeats but may differ in a detail not shown here. Equal values may be shown once. “Also recorded” adds a separate entry of the source. Read-outs that look alike come from different tables or passages of the source. Marks after values point to notes of the source that are not given here.

T1 sequence (P21554 whole entry): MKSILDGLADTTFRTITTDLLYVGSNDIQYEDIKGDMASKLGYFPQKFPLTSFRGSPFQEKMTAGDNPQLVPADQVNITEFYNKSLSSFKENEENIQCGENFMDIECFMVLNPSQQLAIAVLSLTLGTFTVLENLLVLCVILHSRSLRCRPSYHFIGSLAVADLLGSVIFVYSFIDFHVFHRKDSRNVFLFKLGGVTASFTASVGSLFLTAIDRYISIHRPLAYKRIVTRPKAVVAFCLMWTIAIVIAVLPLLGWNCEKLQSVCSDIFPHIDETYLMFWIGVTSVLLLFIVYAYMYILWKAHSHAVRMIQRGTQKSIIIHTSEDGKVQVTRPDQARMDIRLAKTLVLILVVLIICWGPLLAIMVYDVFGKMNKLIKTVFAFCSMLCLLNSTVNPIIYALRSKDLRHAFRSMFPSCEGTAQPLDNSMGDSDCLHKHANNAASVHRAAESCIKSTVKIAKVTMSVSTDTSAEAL

The term Emax denotes the size of the effect at its maximum, as opposed to the concentration needed. For orientation: EC50 means the concentration giving half of the maximal effect. As for `C=C(C)[C@@H]1CCC(C)=C[C@H]1c1c(O)cc(CCC)cc1O` [CBDV, cannabidivarin], the Ki was over 10000 nM in experiment [1] and 140 nM in [4]. Besides, the “extent of [^3H]CP55,940 displacement from hCB1R, in words” value in [1] was “weakly displaced [^3H]CP55,940 at concentrations ≥ 1 µM”. Further, the “hCB1R Emin” value in [1] was 96 ± 5.1*^ %. Also, the maximal response (Emax) in experiment [2] is 68 ± 5.7%; in experiment [3], 0.96 ± 0.75%; in experiment [6] it was 51 ± 12%; in experiment [7], 64 ± 13%. Besides, the concentration giving a half-maximal response (EC50) is over 10000 nM in [2]; over 10000 nM in [3] (PathHunter CHO hCB1R cells, 90 min, 95% CI in brackets, read-out: hCB1R EC50, recruitment of βarrestin2); 5 nM in [6]; over 10000 nM in experiment [7] (PathHunter CHO hCB2R cells, 90 min, 95% CI in brackets, read-out: hCB2R EC50, recruitment of βarrestin2). Moreover, the “in vivo responses in the tetrad assays, in words” value in experiment [5] is on record as “no significant in vivo responses”. For the same compound, in experiment [7] (setting [15]), the “activity in hCB2R βarrestin2 recruitment, in words” value is listed as “demonstrable efficacy at hCB2R in the βarrestin2 recruitment assay, but with very low potency”. Moreover, the “ligand bias at hCB2R (∆∆LogR), in words” value in experiment [8] is “bias for inhibition of cAMP relative to βarrestin2”. For the same compound, in experiment [9], the “hCB2R Emin” value was 22 ± 9.3 %. Further, in experiment [9], the “extent of [^3H]CP55,940 displacement from hCB2R, in words” value was “displaced [^3H]CP55,940 from hCB2R to an extent that was not different from CP55,940”.
`CCCCCc1cc(O)c(C/C=C(\C)CCC=C(C)C)c(O)c1` [CBG, cannabigerol]: the Ki in [1] was 1300 nM; in experiment [13] it was over 1000 nM; in [14] it was over 1000 nM; in [4], 500 nM and 490 nM. Also, the “extent of [^3H]CP55,940 displacement from hCB1R, in words” value in [1] is “weakly displaced [^3H]CP55,940 at concentrations ≥ 1 µM”. Also, the “hCB1R Emin” value in experiment [1] was 49 ± 7.2*^ %. The “agonist activity in hCB1R cAMP inhibition, in words” value in experiment [2] is “weak partial agonist”. The maximum response (Emax) turned out to be 68 ± 2.4% in experiment [2], 0.41 ± 0.45% in [3], 39 ± 11% in [6] and 22 ± 1.2% in [7]. The half-maximal effective concentration (EC50) came out at 120 nM in experiment [2] and 130 nM in experiment [6]. Also, the “ligand bias at hCB1R (∆∆LogR), in words” value in experiment [10] was “bias for the inhibition of cAMP relative to βarrestin2”. The “anti-nociceptive effect (tail flick latency), in words” value in experiment [11] is “weak anti-nociceptive effect; also recorded: small but statistically significant anti-nociceptive effect”. The “time in the central quadrant of the OFT (modelled anxiolytic effect), in words” value in experiment [12] is given as “anxiolytic-like effect”. Further, in experiment [6] (setting [15]), the “agonist activity in hCB2R cAMP inhibition, in words” value is recorded as “weak partial agonist”. In addition, the “ligand bias at hCB2R (∆∆LogR), in words” value in experiment [8] is on record as “bias for inhibition of cAMP relative to βarrestin2”. Moreover, the “hCB2R Emin” value in experiment [9] stood at 32 ± 8.1%. Besides, the “extent of [^3H]CP55,940 displacement from hCB2R, in words” value in experiment [9] was “displaced [^3H]CP55,940 from hCB2R to an extent that was not different from CP55,940”.

Values taken from PMC7684313, “In vitro and in vivo pharmacological activity of minor cannabinoids isolated from Cannabis sativa” (Scientific Reports, 2020).
